Measured values from publication PMC3599939 (BMC Infectious Diseases, 2013).

Tested on: influenza virus neuraminidase (NA)
Format: biochemical

CCOC(=O)C1=C[C@@H](OC(CC)CC)[C@H](NC(C)=O)[C@@H](N)C1 [Oseltamivir, oseltamivir]
Phenotype (S/R): R and S
sensitivity of viruses to Oseltamivir: sensitive
